# Measurements from PubChem BioAssay (NCI).
#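 Method: 48-hour compound exposure of cells in 96-well plates, five concentrations, linear interpolation of endpoints. Here, GI50 denotes the concentration required for 50% inhibition of growth. The concentration for full growth arrest is given as TGI.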
# Key:
# Assay in all cases: inhibition of tumour cell growth, NCI panel, 48 h
# OVCAR-4 ovarian = tested on: OVCAR-4 ovarian
# OVCAR-5 ovarian = tested on: OVCAR-5 ovarian
# DU-145 prostate = tested on: DU-145 prostate
# UO-31 renal = tested on: UO-31 renal
# HOP-92 NSCLC = tested on: HOP-92 NSCLC
# TK-10 renal = tested on: TK-10 renal
# MDA-MB-435 = tested on: MDA-MB-435
# HCT-116 colon = tested on: HCT-116 colon
# UACC-257 melanoma = tested on: UACC-257 melanoma
# T-47D breast = tested on: T-47D breast
# MDA-MB-231 breast = tested on: MDA-MB-231 breast
# HT29 colon = tested on: HT29 colon
# EKVX NSCLC = tested on: EKVX NSCLC
# ACHN renal = tested on: ACHN renal
# LOX IMVI melanoma = tested on: LOX IMVI melanoma
# MOLT-4 leukemia = tested on: MOLT-4 leukemia
# HS 578T breast = tested on: HS 578T breast
# COLO 205 colon = tested on: COLO 205 colon
# NCI-H522 lung = tested on: NCI-H522 lung
# MCF7 breast = tested on: MCF7 breast
# A549 NSCLC = tested on: A549 NSCLC
# NCI-H460 lung = tested on: NCI-H460 lung
# CAKI-1 renal = tested on: CAKI-1 renal
# KM12 colon = tested on: KM12 colon
# SK-OV-3 ovarian = tested on: SK-OV-3 ovarian
# HCT-15 colon = tested on: HCT-15 colon
# HOP-62 NSCLC = tested on: HOP-62 NSCLC
# SF-295 CNS = tested on: SF-295 CNS
# PC-3 prostate = tested on: PC-3 prostate
# CCRF-CEM leukemia = tested on: CCRF-CEM leukemia
# M14 melanoma = tested on: M14 melanoma
# SR leukemia = tested on: SR leukemia
# SNB-19 CNS = tested on: SNB-19 CNS
# OVCAR-3 ovarian = tested on: OVCAR-3 ovarian
# SF-539 CNS = tested on: SF-539 CNS
# 786-0 renal = tested on: 786-0 renal
# SF-268 CNS = tested on: SF-268 CNS
# MALME-3M melanoma = tested on: MALME-3M melanoma
# RPMI-8226 leukemia = tested on: RPMI-8226 leukemia
# K-562 leukemia = tested on: K-562 leukemia
# SW-620 colon = tested on: SW-620 colon
# HL-60(TB) leukemia = tested on: HL-60(TB) leukemia
# RXF 393 renal = tested on: RXF 393 renal
# OVCAR-8 ovarian = tested on: OVCAR-8 ovarian
# NCI-H226 lung = tested on: NCI-H226 lung
# NCI-H23 lung = tested on: NCI-H23 lung
# U251 CNS = tested on: U251 CNS
# SNB-75 CNS = tested on: SNB-75 CNS
# UACC-62 melanoma = tested on: UACC-62 melanoma
# SN12C renal = tested on: SN12C renal
# A498 renal = tested on: A498 renal
# BT-549 breast = tested on: BT-549 breast
# HCC-2998 colon = tested on: HCC-2998 colon
# NCI/ADR-RES ovarian = tested on: NCI/ADR-RES ovarian
# SK-MEL-28 melanoma = tested on: SK-MEL-28 melanoma
# SK-MEL-5 melanoma = tested on: SK-MEL-5 melanoma
smiles,measurement,setting,value
O=C1c2ccccc2N=C(c2cc3c(cc2Cl)Sc2nccn2S3(=O)=O)OS(=O)(=O)N1c1ccccc1,TGI,OVCAR-4 ovarian,> 100000 nM
same,TGI,OVCAR-5 ovarian,78800 nM
same,TGI,DU-145 prostate,> 100000 nM
same,TGI,UO-31 renal,91300 nM
same,TGI,HOP-92 NSCLC,> 100000 nM
same,TGI,TK-10 renal,> 100000 nM
same,TGI,MDA-MB-435,51400 nM
same,TGI,HCT-116 colon,31500 nM
same,TGI,UACC-257 melanoma,> 100000 nM
same,TGI,T-47D breast,> 100000 nM
same,TGI,MDA-MB-231 breast,56200 nM
same,TGI,HT29 colon,61000 nM
same,TGI,EKVX NSCLC,> 100000 nM
same,TGI,ACHN renal,> 100000 nM
same,TGI,LOX IMVI melanoma,32000 nM
same,TGI,MOLT-4 leukemia,32800 nM
same,TGI,HS 578T breast,> 100000 nM
same,TGI,COLO 205 colon,42600 nM
same,TGI,NCI-H522 lung,25500 nM
same,TGI,MCF7 breast,81500 nM
same,TGI,A549 NSCLC,> 100000 nM
same,TGI,NCI-H460 lung,> 100000 nM
same,TGI,CAKI-1 renal,> 100000 nM
same,TGI,KM12 colon,> 100000 nM
same,TGI,SK-OV-3 ovarian,> 100000 nM
same,TGI,HCT-15 colon,50800 nM
same,TGI,HOP-62 NSCLC,76200 nM
same,TGI,SF-295 CNS,42400 nM
same,TGI,PC-3 prostate,> 100000 nM
same,TGI,CCRF-CEM leukemia,41700 nM
same,TGI,M14 melanoma,47500 nM
same,TGI,SR leukemia,26200 nM
same,TGI,SNB-19 CNS,> 100000 nM
same,TGI,OVCAR-3 ovarian,> 100000 nM
same,TGI,SF-539 CNS,> 100000 nM
same,TGI,786-0 renal,> 100000 nM
same,TGI,SF-268 CNS,> 100000 nM
same,TGI,MALME-3M melanoma,> 100000 nM
same,TGI,RPMI-8226 leukemia,46400 nM
same,TGI,K-562 leukemia,74500 nM
same,TGI,SW-620 colon,> 100000 nM
same,TGI,HL-60(TB) leukemia,60700 nM
same,TGI,RXF 393 renal,84700 nM
same,TGI,OVCAR-8 ovarian,44500 nM
same,TGI,NCI-H226 lung,> 100000 nM
same,TGI,NCI-H23 lung,66200 nM
same,TGI,U251 CNS,> 100000 nM
same,TGI,SNB-75 CNS,46100 nM
same,TGI,UACC-62 melanoma,50100 nM
same,TGI,SN12C renal,> 100000 nM
same,TGI,A498 renal,> 100000 nM
same,TGI,BT-549 breast,61100 nM
same,TGI,HCC-2998 colon,36000 nM
Cc1c(C)c2c(c(C)c1OC(=O)CCC(=O)[O-])CCC(C)(CCCCCCCCCCC[P+](c1ccccc1)(c1ccccc1)c1ccccc1)O2 (configuration not stated),GI50,OVCAR-4 ovarian,158 nM
same,TGI,OVCAR-4 ovarian,891 nM
same,GI50,OVCAR-5 ovarian,220 nM
same,TGI,OVCAR-5 ovarian,836 nM
same,GI50,DU-145 prostate,218 nM
same,TGI,DU-145 prostate,899 nM
same,GI50,UO-31 renal,744 nM
same,TGI,UO-31 renal,1420 nM
same,GI50,HOP-92 NSCLC,78 nM
same,TGI,HOP-92 NSCLC,276 nM
same,GI50,TK-10 renal,244 nM
same,TGI,TK-10 renal,1180 nM
same,GI50,MDA-MB-435,179 nM
same,TGI,MDA-MB-435,670 nM
same,GI50,UACC-257 melanoma,151 nM
same,TGI,UACC-257 melanoma,512 nM
same,GI50,T-47D breast,124 nM
same,TGI,T-47D breast,966 nM
same,GI50,HT29 colon,166 nM
same,TGI,HT29 colon,2070 nM
same,GI50,EKVX NSCLC,222 nM
same,TGI,EKVX NSCLC,1450 nM
same,GI50,ACHN renal,264 nM
same,TGI,ACHN renal,909 nM
same,GI50,NCI/ADR-RES ovarian,5620 nM
same,TGI,NCI/ADR-RES ovarian,22000 nM
same,GI50,LOX IMVI melanoma,194 nM
same,TGI,LOX IMVI melanoma,747 nM
same,GI50,MOLT-4 leukemia,456 nM
same,TGI,MOLT-4 leukemia,4700 nM
same,GI50,HS 578T breast,180 nM
same,TGI,HS 578T breast,1310 nM
same,GI50,NCI-H522 lung,153 nM
same,TGI,NCI-H522 lung,1510 nM
same,GI50,MCF7 breast,161 nM
same,TGI,MCF7 breast,815 nM
same,GI50,A549 NSCLC,234 nM
same,TGI,A549 NSCLC,4580 nM
same,GI50,CAKI-1 renal,451 nM
same,TGI,CAKI-1 renal,1340 nM
same,GI50,KM12 colon,177 nM
same,TGI,KM12 colon,705 nM
same,GI50,SK-OV-3 ovarian,157 nM
same,TGI,SK-OV-3 ovarian,538 nM
same,GI50,HCT-15 colon,977 nM
same,TGI,HCT-15 colon,3020 nM
same,GI50,PC-3 prostate,158 nM
same,TGI,PC-3 prostate,706 nM
same,GI50,CCRF-CEM leukemia,226 nM
same,TGI,CCRF-CEM leukemia,1310 nM
same,GI50,SK-MEL-28 melanoma,241 nM
same,TGI,SK-MEL-28 melanoma,829 nM
same,GI50,SR leukemia,261 nM
same,TGI,SR leukemia,9050 nM
same,GI50,OVCAR-3 ovarian,145 nM
same,TGI,OVCAR-3 ovarian,542 nM
same,GI50,SF-539 CNS,185 nM
same,TGI,SF-539 CNS,721 nM
same,GI50,RPMI-8226 leukemia,15.1 nM
same,TGI,RPMI-8226 leukemia,148 nM
same,GI50,K-562 leukemia,182 nM
same,TGI,K-562 leukemia,50000 nM
same,GI50,SW-620 colon,174 nM
same,TGI,SW-620 colon,842 nM
same,GI50,HL-60(TB) leukemia,140 nM
same,TGI,HL-60(TB) leukemia,566 nM
same,GI50,OVCAR-8 ovarian,175 nM
same,TGI,OVCAR-8 ovarian,974 nM
same,GI50,NCI-H23 lung,159 nM
same,TGI,NCI-H23 lung,671 nM
same,GI50,SNB-75 CNS,123 nM
same,TGI,SNB-75 CNS,490 nM
same,GI50,UACC-62 melanoma,177 nM
same,TGI,UACC-62 melanoma,727 nM
same,GI50,SN12C renal,165 nM
same,TGI,SN12C renal,615 nM
same,GI50,SK-MEL-5 melanoma,90.4 nM
same,TGI,SK-MEL-5 melanoma,182 nM
same,GI50,A498 renal,85.1 nM
same,TGI,A498 renal,410 nM
same,GI50,BT-549 breast,140 nM
same,TGI,BT-549 breast,678 nM
same,GI50,HCC-2998 colon,214 nM
same,TGI,HCC-2998 colon,809 nM
